Patent publication US5840684A, “Glycopeptide antibiotic derivatives” (Eli Lilly and Company, priority 1995, dated 1998)
Values after ≈ are worked out from the molar mass of the structure shown.

Legend:
[1] = tested on: Staphylococcus haemolyticus 415; experiment: broth micro-dilution MIC; assay type: cell-based
Experimental: (§1) The formula I compounds have in vitro and in vivo activity against Gram-positive pathogenic bacteria. The MIC's were determined using a standard broth micro-dilution assay.

[2] = tested on: Staphylococcus haemolyticus 105; experiment: broth micro-dilution MIC; assay type: cell-based
Experimental: as §1

Entercoccus faecium 180 = experiment: broth micro-dilution MIC; assay type: cell-based; conditions: Entercoccus faecium 180
Experimental: as §1

[3] = tested on: Streptococcus pneumoniae P1; experiment: broth micro-dilution MIC; assay type: cell-based
Experimental: as §1

[4] = tested on: Staphylococcus epidermidis 270; experiment: broth micro-dilution MIC; assay type: cell-based
Experimental: as §1

[5] = tested on: Enterococcus gallinarum 245; experiment: broth micro-dilution MIC; assay type: cell-based; conditions: Enterococcus gallinarum 245
Experimental: as §1

[6] = tested on: Staphylococcus aureus 447; experiment: broth micro-dilution MIC; assay type: cell-based
Experimental: (§2) The MIC's were determined using a standard broth micro-dilution assay.

[7] = tested on: Staphylococcus aureus SA1199A; experiment: broth micro-dilution MIC; assay type: cell-based
Experimental: as §2

[8] = tested on: Staphylococcus aureus X400; experiment: broth micro-dilution MIC; assay type: cell-based
Experimental: as §2

[9] = tested on: Staphylococcus aureus X778; experiment: broth micro-dilution MIC; assay type: cell-based
Experimental: as §2

[10] = tested on: Staphylococcus aureus 489; experiment: broth micro-dilution MIC; assay type: cell-based
Experimental: as §2

[11] = tested on: Streptococcus pyogenes C203; experiment: broth micro-dilution MIC; assay type: cell-based
Experimental: as §2

[12] = tested on: Staphylococcus aureus 491; experiment: broth micro-dilution MIC; assay type: cell-based
Experimental: as §2

[13] = tested on: Entercoccus faecium 180-1; experiment: broth micro-dilution MIC; assay type: cell-based
Experimental: as §2

[14] = tested on: Staphylococcus aureus 446; experiment: broth micro-dilution MIC; assay type: cell-based
Experimental: as §2

[15] = tested on: vancomycin-susceptible enterococci; experiment: broth micro-dilution, mean geometric MIC; assay type: cell-based, Enterococcus faecium and Enterococcus faecalis; conditions: enterococci, 24-hour incubation
Entercoccus faecium 2041 = experiment: broth micro-dilution MIC; assay type: cell-based; conditions: Entercoccus faecium 2041
Experimental: as §1

[16] = tested on: vancomycin-resistant enterococci; experiment: broth micro-dilution, mean geometric MIC; assay type: cell-based, Enterococcus faecium and Enterococcus faecalis; conditions: enterococci, 24-hour incubation
[17] = tested on: Staphylococcus aureus SA1199B; assay type: cell-based
Experimental: as §2

[18] = tested on: Staphylococcus aureus S13E; assay type: cell-based
Experimental: as §2

Entercoccus faecium 276 = experiment: broth micro-dilution MIC; assay type: cell-based
Experimental: as §2

| Structure (SMILES) | MIC [1] [µg/mL] | MIC [2] [µg/mL] | MIC (Entercoccus faecium 180) [µg/mL] | MIC [3] [µg/mL] | MIC [4] [µg/mL] | MIC [5] [µg/mL] | MIC [6] [µg/mL] | MIC [7] [µg/mL] | MIC [8] [µg/mL] | MIC [9] [µg/mL] | MIC [10] [µg/mL] | MIC [11] [µg/mL] | MIC [12] [µg/mL] | MIC [13] [µg/mL] | MIC [14] [µg/mL] | mean geometric MIC, Vancomycin Sensitive Strains [15] [µg/mL] | MIC (Entercoccus faecium 2041) [µg/mL] | mean geometric MIC, Vancomycin Resistant Strains [16] [µg/mL] | MIC [18] [µg/mL] | MIC (Entercoccus faecium 276) [µg/mL] | other results |
| --- | --- | --- | --- | --- | --- | --- | --- | --- | --- | --- | --- | --- | --- | --- | --- | --- | --- | --- | --- | --- | --- |
| CNC(CC(C)C)C(=O)NC1C(=O)NC(CC(N)=O)C(=O)NC2C(=O)NC3C(=O)NC(C(=O)NC(C(=O)O)c4cc(O)cc(O)c4-c4cc3ccc4O)C(OC3CC(C)(N)C(O)C(C)O3)c3ccc(c(Cl)c3)Oc3cc2cc(c3OC2OC(CO)C(O)C(O)C2OC2CC(C)(NCc3ccc(OCC(O)CO)cc3)C(O)C(C)O2)Oc2ccc(cc2Cl)C1O (centres unmarked) [Compound 177] | 16 (≈ 9.03 µM) | 4 (≈ 2.26 µM) | 4 (≈ 2.26 µM) | 8 (≈ 4.51 µM) | 1 (≈ 0.564 µM) | 16 (≈ 9.03 µM) | 4 (≈ 2.26 µM) | 0.5 (≈ 0.282 µM) | ≤ 0.06 | 2 (≈ 1.13 µM) | ≤ 0.06 | 16 (≈ 9.03 µM) | 0.5 (≈ 0.282 µM) | ≤ 0.06 | 0.5 (≈ 0.282 µM) | – | – | – | – | – | – |
| CNC(CC(C)C)C(=O)NC1C(=O)NC(CC(N)=O)C(=O)NC2C(=O)NC3C(=O)NC(C(=O)NC(C(=O)O)c4cc(O)cc(O)c4-c4cc3ccc4O)C(OC3CC(C)(N)C(O)C(C)O3)c3ccc(c(Cl)c3)Oc3cc2cc(c3OC2OC(CO)C(O)C(O)C2OC2CC(C)(NCc3cccc(OC(=O)C4CCCCC4)c3)C(O)C(C)O2)Oc2ccc(cc2Cl)C1O (centres unmarked) [Compound 165] | 4 (≈ 2.21 µM) | 4 (≈ 2.21 µM) | 0.5 (≈ 0.276 µM) | ≤ 0.06 | 1 (≈ 0.553 µM) | 4 (≈ 2.21 µM) | 0.5 (≈ 0.276 µM) | ≤ 0.06 | 0.5 (≈ 0.276 µM) | – | 2 (≈ 1.11 µM) | ≤ 0.06 | 0.5 (≈ 0.276 µM) | ≤ 0.06 | 1 (≈ 0.553 µM) | 0.062 | ≤ 0.06 | 4.0 | ≤ 0.06 | 0.5 (≈ 0.276 µM) | MIC [17]: 1 µg/mL (≈ 0.553 µM) |
| CCCCCCCC#Cc1ccc(CN[C@@]2(C)C[C@H](O[C@H]3[C@H](Oc4c5cc6cc4Oc4ccc(cc4Cl)[C@@H](O[C@H]4C[C@](C)(N)[C@@H](O)[C@H](C)O4)[C@@H]4NC(=O)[C@H](NC(=O)[C@@H]6NC(=O)[C@H](CC(N)=O)NC(=O)[C@H](NC(=O)[C@@H](CC(C)C)NC)[C@H](O)c6ccc(c(Cl)c6)O5)c5ccc(O)c(c5)-c5c(O)cc(O)cc5[C@@H](C(=O)O)NC4=O)O[C@H](CO)[C@@H](O)[C@@H]3O)O[C@@H](C)[C@@H]2O)cc1 [Compound 232] | 32 (≈ 17.7 µM) | 2 (≈ 1.11 µM) | 0.5 (≈ 0.277 µM) | ≤ 0.06 | 8 (≈ 4.43 µM) | 32 (≈ 17.7 µM) | – | 2 (≈ 1.11 µM) | 8 (≈ 4.43 µM) | 8 (≈ 4.43 µM) | 8 (≈ 4.43 µM) | ≤ 0.06 | 4 (≈ 2.22 µM) | 1 (≈ 0.554 µM) | 4 (≈ 2.22 µM) | 0.29 | 2 (≈ 1.11 µM) | 0.71 | 8 (≈ 4.43 µM) | 8 (≈ 4.43 µM) | MIC [17]: 32 µg/mL (≈ 17.7 µM) |
| CNC(CC(C)C)C(=O)NC1C(=O)NC(CC(N)=O)C(=O)NC2C(=O)NC3C(=O)NC(C(=O)NC(C(=O)O)c4cc(O)cc(O)c4-c4cc3ccc4O)C(OC3CC(C)(N)C(O)C(C)O3)c3ccc(c(Cl)c3)Oc3cc2cc(c3OC2OC(CO)C(O)C(O)C2OC2CC(C)(NCc3cncc(-c4ccccc4)c3)C(O)C(C)O2)Oc2ccc(cc2Cl)C1O (centres unmarked) [Compound 101] | 8 (≈ 4.55 µM) | 1 (≈ 0.568 µM) | – | ≤ 0.06 | 0.5 (≈ 0.284 µM) | 8 (≈ 4.55 µM) | 1 (≈ 0.568 µM) | 0.5 (≈ 0.284 µM) | ≤ 0.06 | – | ≤ 0.06 | ≤ 0.06 | 0.5 (≈ 0.284 µM) | ≤ 0.06 | 0.5 (≈ 0.284 µM) | – | ≤ 0.06 | 4.0 | – | 0.125 (≈ 0.071 µM) | MIC [17]: 1 µg/mL (≈ 0.568 µM) |
| CNC(CC(C)C)C(=O)NC1C(=O)NC(CC(N)=O)C(=O)NC2C(=O)NC3C(=O)NC(C(=O)NC(C(=O)O)c4cc(O)cc(O)c4-c4cc3ccc4O)C(O)c3ccc(c(Cl)c3)Oc3cc2cc(c3OC2OC(CO)C(O)C(O)C2OC2CC(C)(NCc3cccc4ccccc34)C(O)C(C)O2)Oc2ccc(cc2Cl)C1O (centres unmarked) [Compound 180] | 2 (≈ 1.26 µM) | 2 (≈ 1.26 µM) | 8 (≈ 5.03 µM) | ≤ 0.06 | – | 0.25 (≈ 0.157 µM) | – | ≤ 0.06 | ≤ 0.06 | ≤ 0.06 | ≤ 0.06 | ≤ 0.06 | 0.5 (≈ 0.315 µM) | – | – | 0.71 | 0.25 (≈ 0.157 µM) | > 128 | ≤ 0.06 | 2 (≈ 1.26 µM) | MIC [17]: ≤ 0.06 µg/mL |
| CNC(CC(C)C)C(=O)NC1C(=O)NC(CC(N)=O)C(=O)NC2C(=O)NC3C(=O)NC(C(=O)NC(C(=O)O)c4cc(O)cc(O)c4-c4cc3ccc4O)C(OC3CC(C)(N)C(O)C(C)O3)c3ccc(c(Cl)c3)Oc3cc2cc(c3OC2OC(CO)C(O)C(O)C2OC2CC(C)(NCc3cnc4ccccc4c3)C(O)C(C)O2)Oc2ccc(cc2Cl)C1O (centres unmarked) [Compound 28] | 8 (≈ 4.61 µM) | 4 (≈ 2.31 µM) | 1 (≈ 0.577 µM) | – | 1 (≈ 0.577 µM) | 0.25 (≈ 0.144 µM) | 1 (≈ 0.577 µM) | ≤ 0.06 | ≤ 0.06 | ≤ 0.06 | ≤ 0.06 | – | 0.25 (≈ 0.144 µM) | ≤ 0.06 | 0.25 (≈ 0.144 µM) | 0.71 | 0.25 (≈ 0.144 µM) | 4.7 | ≤ 0.06 | ≤ 0.06 | – |
| CC#CCCCCCCCCCCOc1ccc(CNC2(C)CC(OC3C(Oc4c5cc6cc4Oc4ccc(cc4Cl)C(OC4CC(C)(N)C(O)C(C)O4)C4NC(=O)C(NC(=O)C6NC(=O)C(CC(N)=O)NC(=O)C(NC(=O)C(CC(C)C)NC)C(O)c6ccc(c(Cl)c6)O5)c5ccc(O)c(c5)-c5c(O)cc(O)cc5C(C(=O)O)NC4=O)OC(CO)C(O)C3O)OC(C)C2O)cc1 (centres unmarked) [Compound 233] | – | – | 2 (≈ 1.07 µM) | 0.5 (≈ 0.266 µM) | 8 (≈ 4.26 µM) | – | – | 4 (≈ 2.13 µM) | 8 (≈ 4.26 µM) | 8 (≈ 4.26 µM) | 4 (≈ 2.13 µM) | – | 8 (≈ 4.26 µM) | 2 (≈ 1.07 µM) | 4 (≈ 2.13 µM) | 1.7 | 2 (≈ 1.07 µM) | 1.7 | 8 (≈ 4.26 µM) | 8 (≈ 4.26 µM) | – |
